Measured values: US20240315986A1, “PHARMACEUTICAL COMPOSITION FOR TREATMENT OF MULTIPLE SYSTEM ATROPHY” (THE UNIVERSITY OF TOKYO, priority 2021, published 2024)
Where two headings read alike, the source gives them in different places.

Legend:
[1] = oral administration to a human; cited from earlier work
[2] = intravenous administration to a rat; cited from earlier work
[3] = system: multiple system atrophy patients; test: Phase 2 clinical trial of MSA-01 in multiple system atrophy patients; type: in vivo, human
Description: For a group of 21 patients with COQ2 mutation and a group of 108 patients without COQ2 mutation, 61 patients were administered with the MSA-01 and 68 patients were administered with the placebo for each group. Among 129 patients in total in the patient groups, 99 patients had the MSA-C and 30 patients had the MSA-P. The 129 patients who were confirmed to be eligible during 4-week observation period were randomly assigned to be administered with the MSA-01 or the placebo once per day after breakfast (doses of the MSA-01 or the placebo ascend every 2 weeks to 300, 600, 900, 1,200, and 1,500 mg/day, FIG. 2), and evaluation items according to main evaluation items were measured at Weeks 12, 24, 36, and 48.
Changes (LS means) of UMSARS part 2 scores at Weeks 12, 24, 36, and 48 from the baseline (unified multiple-system atrophy rating scale part 2; Wenning G K, Tison F, Seppi K, et al. Development and validation of the Unified Multiple System Atrophy Rating Scale (UMSARS). Mov Disord [Internet] 2004; 19(12):1391-402) were evaluated. […] Results are shown in FIG. 3A (at Weeks 12, 24, 36, and 48) and FIG. 4 (at Week 48).
Changes (LS mean) of a UMSARS part 1 score (unified multiple-system atrophy rating scale part 1; Wenning G K, Tison F, Seppi K, et al. Development and validation of the Unified Multiple System Atrophy Rating Scale (UMSARS). Mov Disord [Internet] 2004; 19(12):1391-402), the Barthel index (Barthel index: Mahoney F I, Barthel D W. Functional evaluation: The Barthel index. Md State Med J [Internet] 1965; 14:61-5. Available from:http://www.ncbi.nlm.nih.gov/pubmed/14258950) (FIG. 3B), a SARA score (Schmitz-Huebsch T, du Montcel S T, Baliko L, Berciano J, Boesch S, Depondt C, Giunti P, Globas C, Infante J, Kang J S, Kremer B, Mariotti C, Melegh B, Pandolfo M, Rakowicz M, Ribai P, Rola R, Schoels L, Szymanski S, van de Warrenburg B P, Duerr A, Klockgether T, Fancellu R. Scale for the assessment and rating of ataxia:development of a new clinical scale. Neurology. 2006 Jun. 13; 66(11):1717-20. doi: 10.1212/01.wnl.0000219042.60538.92), and a 10-meter walking time (second) at Week 48 from baselines was evaluated (FIG. 4).

[4] = cited from earlier work
[5] = Phase 1 clinical trial: plasma concentration of drug in repeated oral administration for 14 days; type: in vivo, human; details: for Maximum plasma concentration of the MSA-01: 6 hours after repeated oral administration for 14 days (318 hour)
Description: (Measurement of Plasma Concentration of Drug in Repeated Oral Administration for 14 Days)
The MSA-01 was subjected to the oral administration to healthy subjects at doses of 900 mg, 1,200 mg, and 1,500 mg repeatedly for 14 days. […] Maximum plasma concentrations of the MSA-01 detected were 10.24, 9.38, and 15.22 μg/mL in 900 mg, 1,200 mg, and 1,500 mg groups, respectively, in measurement after 6 hours from the repeated oral administration for 14 days (a value at 318 hour in FIG. 1). Published baselines of the plasma concentration of the ubiquinol are 0.87 and […] (% Reduced CoQ10: 98.9 and 85%) (Langsjoen, et al. Comparison study of plasma coenzyme Q10 levels in healthy subjects supplemented with ubiquinol versus ubiquinone. Clin Pharmacol Drug Dev. 2014; 3(1):13-17, Onur et al. Determination of the coenzyme Q10 status in a large Caucasian study population. Biofactors 2015; 41(4):211-21), and it is estimated that MSA-01 in the plasma increased about 20-fold from the baselines in the 1500 mg group in the test.

[6] = system: familial MSA patient; details: cited from earlier work
[7] = Week 48, compared to the placebo group
[8] = first cited value (Langsjoen et al. 2014)
[9] = second cited value (Onur et al. 2015)

Maximum plasma concentration of the MSA-01 ([5]; 900 mg group) [µg/mL] | Maximum plasma concentration of the MSA-01 ([5]; 1,200 mg group) [µg/mL] | increase of MSA-01 in the plasma from the baselines ([5]; 1500 mg group, versus published baselines) | Maximum plasma concentration of the MSA-01 ([5]; 1,500 mg group) [µg/mL] | plasma concentration of the MSA-01 until 24 hours after the administration ([5]; healthy subjects, oral 900, 1,200 and 1,500 mg, quantification limit printed 1 g/mL) | time of repeated administration to reach steady state of plasma concentration ([5]; healthy subjects, repeated oral administration 900-1,500 mg) | SMILES | ubiquinol (reduced) present in plasma after ubiquinone administration [1] [%] | ubiquinol (reduced) present in plasma after ubiquinone administration [2] [%] | Change (LS mean) of 10-meter walking time from baseline [3, 7] | Change (LS mean) of SARA score from baseline [3, 7] | Change (LS mean) of the Barthel index from baseline [3, 7] | difference of LS mean change of UMSARS part 2 score, MSA-01 group versus placebo group ([3]; Week 48, 95% confidence interval −3.24 to −0.24, P=0.023) | Change (LS mean) of UMSARS part 2 score from the baseline ([3]; Week 48, MSA-01 ascending to 1,500 mg/day oral once per day, placebo 7.14) | % Reduced CoQ10 [4, 8] [%] | Published baseline of the plasma concentration of the ubiquinol [4, 8] [µg/mL] | % Reduced CoQ10 [4, 9] [%] | Published baseline of the plasma concentration of the ubiquinol [4, 9] [µg/mL] | clinical evaluation scale ([6]; 600 mg 2 weeks, 840 mg 2 weeks, 1,200 mg 2 weeks, once per day from a gastrostomy tube) | brain oxygen consumption rate ([6]; one familial MSA patient, ubiquinol above conventional dose)
 |  |  |  |  |  | COC1=C(OC)C(=O)C(C/C=C(\C)CC/C=C(\C)CC/C=C(\C)CC/C=C(\C)CC/C=C(\C)CC/C=C(\C)CC/C=C(\C)CC/C=C(\C)CC/C=C(\C)CCC=C(C)C)=C(C)C1=O [ubiquinone] | ≥ 95 | ≥ 95 |  |  |  |  |  |  |  |  |  |  | 
10.24 | 9.38 | about 20 fold | 15.22 | extremely low | about 7 days | COC1=C(OC)C(O)C(C/C=C(\C)CC/C=C(\C)CC/C=C(\C)CC/C=C(\C)CC/C=C(\C)CC/C=C(\C)CC/C=C(\C)CC/C=C(\C)CC/C=C(\C)CCC=C(C)C)=C(C)C1O (stereo not shown) [MSA-01, 2-[(2E,6E,10E,14E,18E,22E,26E,30E,34E)-3,7,11,15,19,23,27,31,35,39-decamethyltetraconta-2,6,10,14,18,22,26,30,34,38-decaenyl]-5,6-dimethoxy-3-methylcyclohexa-2,5-diene-1,4-diol] |  |  | effects were shown | effects were shown | effects were shown | −1.74 | 5.40 | 98.9 | 0.87 | 85 | 0.66 | no statistically significant changes | improved brain oxygen consumption rate
